The text below walks through data of patent US10508077B2 (FORMA Therapeutics, Inc., priority 2015, dated 2019).

In the test the target is T1, Full length human recombinant HDAC8 protein (Homo sapiens, UniProt Q9BY41).
T1 construct: Full length human recombinant HDAC8 protein was expressed in baculoviral system; made in house
T1 sequence (Q9BY41 1-377): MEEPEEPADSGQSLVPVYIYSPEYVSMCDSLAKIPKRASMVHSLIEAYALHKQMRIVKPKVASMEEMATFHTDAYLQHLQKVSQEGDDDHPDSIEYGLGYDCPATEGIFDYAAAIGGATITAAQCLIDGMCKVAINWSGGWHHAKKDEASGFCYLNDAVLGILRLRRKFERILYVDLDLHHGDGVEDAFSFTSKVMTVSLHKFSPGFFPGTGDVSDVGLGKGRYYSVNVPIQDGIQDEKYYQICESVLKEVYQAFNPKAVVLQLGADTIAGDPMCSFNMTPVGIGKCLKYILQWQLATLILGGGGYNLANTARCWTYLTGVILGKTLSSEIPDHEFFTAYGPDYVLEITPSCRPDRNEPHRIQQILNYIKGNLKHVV
Briefly: In vitro histone deacetylase assay: enzymatic HDAC8 assay, electrophoretic mobility shift. Type of test: biochemical. Particulars: substrate RHKK(Ac)-NH2, 1 nM enzyme, compounds listed under IC50 range headings. In a few lines: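 Readout was microfluidic mobility-shift separation of deacetylated product from fluorescent RHKK(Ac)-NH2 substrate (2 µM), after reaction with 1 nM recombinant full-length human HDAC8 at 25 °C, pH 7.5, stopped with SDS. Twelve 3-fold-spaced concentrations tested; product/sum ratios normalized to controls and fitted with a 4-parameter model for IC50.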
For orientation: Mobility shift assays separate free from complexed probe on a gel.
A word on the IC50: it is the concentration at which inhibition is half-maximal. Turning to `CCCc1nc(-c2ccccc2)sc1C(=O)Nc1ccccc1/C=C/C(=O)NO` [Example I-276, (E)-N-(2-(3-(hydroxyamino)-3-oxoprop-1-en-1-yl)phenyl)-2-phenyl-4-propylthiazole-5-carboxamide], the IC50 is < 1000 nM.

In the case of `Cc1nc(-c2ccccc2)sc1C(=O)Nc1ccccc1/C=C/C(=O)NO` [Example I-277, (E)-N-(2-(3-(hydroxyamino)-3-oxoprop-1-en-1-yl)phenyl)-4-methyl-2-phenylthiazole-5-carboxamide], the IC50 was < 1000 nM. The result for `Cc1ccccc1C(C(=O)Nc1ccccc1/C=C/C(=O)NO)C(C)C` (stereo not drawn) [Example I-278, (E)-N-(2-(3-(hydroxyamino)-3-oxoprop-1-en-1-yl)phenyl)-3-methyl-2-(o-tolyl)butanamide] reads < 1000 nM; that for `O=C(/C=C/c1ccccc1NC(=O)C(c1ccccc1)C1CCCC1)NO` (stereo not drawn) [Example I-279, (E)-3-(2-(2-cyclopentyl-2-phenylacetamido)phenyl)-N-hydroxyacrylamide], < 1000 nM; that for `Cc1ccc(Sc2ncccc2C(=O)Nc2ccccc2/C=C/C(=O)NO)cc1` [Example I-280, (E)-N-(2-(3-(hydroxyamino)-3-oxoprop-1-en-1-yl)phenyl)-2-(p-tolylthio)nicotinamide], < 1000 nM.

In the case of `Cc1nc(C(C)(C)C)sc1C(=O)Nc1ccccc1/C=C/C(=O)NO` [Example I-283, (E)-2-(tert-butyl)-N-(2-(3-(hydroxyamino)-3-oxoprop-1-en-1-yl)phenyl)-4-methylthiazole-5-carboxamide], the 50% inhibitory concentration (IC50) is < 1000 nM.

`COc1cc(-c2ccccc2)sc1C(=O)Nc1ccccc1/C=C/C(=O)NO` [Example I-284, (E)-N-(2-(3-(hydroxyamino)-3-oxoprop-1-en-1-yl)phenyl)-3-methoxy-5-phenylthiophene-2-carboxamide]: the 50% inhibitory concentration (IC50) was < 1000 nM. In the case of `Cn1cc(-c2ncc(C(=O)Nc3ccccc3/C=C/C(=O)NO)s2)cn1` [Example I-285, (E)-N-(2-(3-(hydroxyamino)-3-oxoprop-1-en-1-yl)phenyl)-2-(1-methyl-1H-pyrazol-4-yl)thiazole-5-carboxamide], the IC50 was < 1000 nM. To `Cc1cc(C(=O)Nc2ccccc2/C=C/C(=O)NO)ccc1-n1cnnn1` [Example I-286, (E)-N-(2-(3-(hydroxyamino)-3-oxoprop-1-en-1-yl)phenyl)-3-methyl-4-(1H-tetrazol-1-yl)benzamide] belongs < 1000 nM. For `O=C(/C=C/c1ccccc1NC(=O)c1ccc(Cn2nnc3ccccc32)cc1)NO` [Example I-287, (E)-4-((1H-benzo[d][1,2,3]triazol-1-yl)methyl)-N-(2-(3-(hydroxyamino)-3-oxoprop-1-en-1-yl)phenyl)benzamide], the 50% inhibitory concentration (IC50) is < 1000 nM.

As for `Cc1nc(C(C)C(=O)N2CCN(c3ccccc3/C=C/C(=O)NO)CC2)cs1` (stereo not drawn) [Example I-289, (E)-N-hydroxy-3-(2-(4-(2-(2-methylthiazol-4-yl)propanoyl)piperazin-1-yl)phenyl)acrylamide], the IC50 was < 1000 nM. To `O=C(/C=C/c1ccccc1N1Cc2cc(Cl)c(Cl)cc2C1)NO` [Example I-290, (E)-3-(2-(5,6-dichloroisoindolin-2-yl)phenyl)-N-hydroxyacrylamide] belongs < 1000 nM. The result for `CC(C(=O)N1CCN(c2ccccc2/C=C/C(=O)NO)CC1)c1ccc(Cl)cc1` (stereo not drawn) [Example I-291, (E)-3-(2-(4-(2-(4-chlorophenyl)propanoyl)piperazin-1-yl)phenyl)-N-hydroxyacrylamide] reads < 1000 nM; that for `O=C(/C=C/c1ccccc1N1CCN(C(=O)C2(c3ccc(Cl)cc3)CC2)CC1)NO` [Example I-294, (E)-3-(2-(4-(1-(4-chlorophenyl)cyclopropane-1-carbonyl)piperazin-1-yl)phenyl)-N-hydroxyacrylamide], < 1000 nM; that for `O=C(/C=C/c1ccccc1N1CCN(C(=O)Cc2cccnc2)CC1)NO` [Example I-295, (E)-N-hydroxy-3-(2-(4-(2-(pyridin-3-yl)acetyl)piperazin-1-yl)phenyl)acrylamide], < 1000 nM.

Regarding `O=C(/C=C/c1ccccc1N1CCN(C(=O)Cc2ccccn2)CC1)NO` [Example I-296, (E)-N-hydroxy-3-(2-(4-(2-(pyridin-2-yl)acetyl)piperazin-1-yl)phenyl)acrylamide], the half-inhibitory concentration (IC50) is < 1000 nM. Take `CC(Cc1ccccc1)C(=O)N1CCN(c2ccccc2/C=C/C(=O)NO)CC1` (stereo not drawn) [Example I-297, (E)-N-hydroxy-3-(2-(4-(2-methyl-3-phenylpropanoyl)piperazin-1-yl)phenyl)acrylamide]: the IC50 is < 1000 nM. The result for `O=C(/C=C/c1ccccc1N1CCN(CCc2ccc(Cl)cc2)CC1)NO` [Example I-299, (E)-3-(2-(4-(4-chlorophenethyl)pipera-zin-1-yl)phenyl)-N-hydroxyacrylamide] reads < 1000 nM; that for `CC(CN1CCN(c2ccccc2/C=C/C(=O)NO)CC1)c1ccccc1` (stereo not drawn) [Example I-300, (E)-N-hydroxy-3-(2-(4-(2-phenylpropyl)piperazin-1-yl)phenyl)acrylamide], < 1000 nM. To `CC(C)(C)OC(=O)NC1CCN(c2ccccc2/C=C/C(=O)NO)C1` (stereo not drawn) [Example I-301, tert-butyl (E)-(1-(2-(3-(hydroxyamino)-3-oxoprop-1-en-1-yl)phenyl)pyrrolidin-3-yl)carbamate] belongs < 1000 nM.

Turning to `O=C(/C=C/c1ccccc1N1CCN(c2ccccc2)C1=O)NO` [Example I-302, (E)-N-hydroxy-3-(2-(2-oxo-3-phenylimidazolidin-1-yl)phenyl)acrylamide], the IC50 is < 1000 nM.

For the molecule `O=C(/C=C/c1ccccc1NC(=O)c1ccnc(N2CCOCC2)c1)NO` [Example I-305, (E)-N-(2-(3-(hydroxyamino)-3-oxoprop-1-en-1-yl)phenyl)-2-morpholinoisonicotinamide], the 50% inhibitory concentration (IC50) is < 1000 nM. As for `O=C(/C=C/c1ccccc1N1Cc2ccccc2C1=O)NO` [Example I-308, (E)-N-hydroxy-3-(2-(1-oxoisoindolin-2-yl)phenyl)acrylamide], the concentration for half-maximal inhibition (IC50) is < 1000 nM. In the case of `O=C(/C=C/c1ccccc1N1CC2CC1CN2C(=O)Cc1ccc(Cl)cc1)NO` [Example I-316, (E)-3-(2-((1S,4S)-5-(2-(4-chlorophenyl)acetyl)-2,5-diazabicyclo[2.2.1]heptan-2-yl)pheynyl)-N-hydroxyacrylamide], the IC50 was < 1000 nM. As for `O=C(/C=C/c1ccccc1N1CCC(NC(=O)c2ccccc2)C1)NO` (stereo not drawn) [Example I-318, (E)-N-(1-(2-(3-(hydroxyamino)-3-oxoprop-1-en-1-yl)phenyl)pyrrolidin-3-yl)benzamide], the IC50 was < 1000 nM. On to `O=C(/C=C/c1ccccc1N1CCN(C(=O)C2(C(F)(F)F)CC2)CC1)NO` [Example I-322, (E)-N-hydroxy-3-(2-(4-(1-(trifluoromethyl)cyclopro-pane-1-carbonyl)piperazin-1-yl)phenyl)acrylamide], for which the half-inhibitory concentration (IC50) is < 1000 nM. To `O=C(/C=C/c1ccccc1N1C[C@@H]2C[C@H]1CN2C(=O)C1(c2ccc(Cl)cc2)CC1)NO` [Example I-329, (E)-3-(2-((1S,4S)-5-(1-(4-chlorophenyl)cyclopropane-1-carbonyl)-2,5-diazabicyclo[2.2.1]heptan-2-yl)phenyl)-N-hydroxyacrylamide] belongs < 1000 nM; to `O=C(/C=C/c1ccccc1NC1CCN(Cc2ccc(F)cc2)C1)NO` (stereo not drawn) [Example I-330, (E)-3-(2-((1-(4-fluorobenzyl)pyrrolidin-3-yl)amino)phenyl)-N-hydroxyacrylamide], < 1000 nM; to `O=C(/C=C/c1ccccc1N1CCC(NC(=O)Cc2ccc(F)cc2)CC1)NO` [Example I-331, (E)-3-(2-(4-(2-(4-fluorophenyl)acetamido)piperidin-1-yl)phenyl)-N-hydroxyacrylamide], < 1000 nM. As to `O=C(/C=C/c1ccccc1NC(=O)c1ccccc1)NO` [Example I-506, (E)-N-(2-(3-(hydroxyamino)-3-oxoprop-1-enyl)phenyl)benzamide 2,2,2-trifluoroacetate], the half-inhibitory concentration (IC50) was < 1000 nM. The result for `O=C(/C=C/c1ccccc1N1CCN(C(=O)Nc2ccc(OC(F)(F)F)cc2)CC1=O)NO` [Example I-528, (E)-4-(2-(3-(hydroxyamino)-3-oxoprop-1-en-1-yl)phenyl)-3-oxo-N-(4-(trifluoromethoxy)phenyl)piperazine-1-carboxamide] reads < 1000 nM; that for `O=C(/C=C/c1ccccc1N1CCN(C(=O)c2ccc(C(F)(F)F)cc2)CC1=O)NO` [Example I-532, (E)-N-hydroxy-3-(2-(2-oxo-4-(4-(trifluoromethyl)benzoyl)piperazin-1-yl)phenyl)acrylamide], < 1000 nM. To `O=C(/C=C/c1ccccc1C(=O)Nc1ccc(-c2ccccc2)c(C(F)(F)F)c1)NO` [II-1] belongs 1000 to 10000 nM; to `O=C(/C=C/c1ccccc1C(=O)Nc1ccccc1)NO` [II-2, (E)-2-(3-(hydroxyamino)-3-oxoprop-1-en-1-yl)-N-phenylbenzamide], 1000 to 10000 nM. To `CCc1ccc(NC(=O)c2ccccc2/C=C/C(=O)NO)cc1` [II-3, (E)-N-(4-ethylphenyl)-2-(3-(hydroxyamino)-3-oxoprop-1-en-1-yl)benzamide] belongs 1000 to 10000 nM. As to `O=C(/C=C/c1ccccc1C(=O)NCC1CCCCC1)NO` [II-4, (E)-N-(cyclohexylmethyl)-2-(3-(hydroxyamino)-3-oxoprop-1-en-1-yl)benzamide], the 50% inhibitory concentration (IC50) lay in the range of 1000 to 10000 nM.
